The record followed here is article PMC8707461, “In Vitro and In Vivo Inhibition of MATE1 by Tyrosine Kinase Inhibitors” (Pharmaceutics, 2021).

In one data set the target is T1, MATE1 (Homo sapiens, UniProt Q96FL8).
T1 sequence (Q96FL8 1-570): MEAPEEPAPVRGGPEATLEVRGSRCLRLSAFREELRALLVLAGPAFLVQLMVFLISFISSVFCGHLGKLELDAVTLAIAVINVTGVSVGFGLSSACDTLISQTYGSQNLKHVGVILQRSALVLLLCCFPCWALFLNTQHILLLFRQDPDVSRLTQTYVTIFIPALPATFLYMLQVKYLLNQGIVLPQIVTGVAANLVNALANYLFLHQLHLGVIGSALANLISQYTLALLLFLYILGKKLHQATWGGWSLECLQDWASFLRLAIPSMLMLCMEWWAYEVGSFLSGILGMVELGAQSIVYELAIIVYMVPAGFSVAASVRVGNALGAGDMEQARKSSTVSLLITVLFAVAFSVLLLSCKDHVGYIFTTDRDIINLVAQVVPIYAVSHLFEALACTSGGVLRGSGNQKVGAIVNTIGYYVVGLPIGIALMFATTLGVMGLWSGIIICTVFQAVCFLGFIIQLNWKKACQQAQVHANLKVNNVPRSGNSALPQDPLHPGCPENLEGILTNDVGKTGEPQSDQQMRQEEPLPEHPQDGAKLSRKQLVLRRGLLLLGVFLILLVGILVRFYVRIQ
Put plainly: [14C]TEA uptake in HEK293 cells overexpressing human MATE1. The following applies: human, HEK293 cells overexpressing human MATE1, pH 7.4, probe [14C]TEA (tetraethylammonium), 2 µM. The method, then:
Uptake experiments in HEK293 cells overexpressing mouse (m) and human (h) OCT2 or MATE1 were performed with radiolabeled tetraethylammonium (TEA) as the model substrate, using standard methods in the presence or absence of TKIs. The cell culture and uptake conditions for cells expressing mMATE1 or hMATE1 were described previously. […] Since the inhibitory potential of various xenobiotics against OCT2 and MATE1 is dependent on preincubation with perpetrator drugs, a 15-min preincubation period with the TKIs was employed unless stated otherwise. All results were normalized to uptake values in cells transfected with an empty vector or DMSO-treated groups.
MATE1-overexpressed cells were pre-incubated with transport media containing 30 mM ammonium chloride for 20 min at 37 °C following previously published protocol (pH 7.4 for hMATE1 [17, 18, 19] and pH 8.4 for mMATE1 [20, 21]) to ensure interactions can be evaluated between outward-facing MATE1 and substrate uptake before adding inhibitors. Then, preincubation media was removed and cells were incubated with transport media (NH4Cl free) containing radiolabeled compounds. […] The uptake of TEA and metformin was measured by liquid scintillation counting, as described previously. For uptake studies involving platinum drugs, cells were collected with TrypLE, and the pellets were lysed overnight in 0.2% nitric acid. After sonication, total platinum levels were determined by flameless atomic absorption spectrometry.
In general, inhibition refers to how much of the control response was suppressed. A high value points to strong suppression. `CC#CC(=O)N1CCC[C@H]1c1nc(-c2ccc(C(=O)Nc3ccccn3)cc2)c2c(N)nccn12` [Acalabrutinib]: the inhibition at 10 µM was determined as 43.3%.
The same measure, in the same setting: as for `CCc1cc2c(cc1N1CCC(N3CCOCC3)CC1)C(C)(C)c1[nH]c3cc(C#N)ccc3c1C2=O` [Alectinib], the figure is 0%.
Same read-out and setting: the same measure for `Cn1cc(-c2cc3c(N4CCN(c5ncc([C@@](C)(N)c6ccc(F)cc6)cn5)CC4)ncnn3c2)cn1` [Avapritinib]: 78.6%; for `CNC(=O)c1ccccc1Sc1ccc2c(/C=C/c3ccccn3)n[nH]c2c1` [Axitinib]: 60.8%; for `CCS(=O)(=O)N1CC(CC#N)(n2cc(-c3ncnc4[nH]ccc34)cn2)C1` [Baricitinib]: 55.5%.
In turn, `CNC(=O)c1ccc(-c2cnc3ncc(Cc4ccc5ncccc5c4)n3n2)cc1F` [Capmatinib] had an inhibition at 10 µM of 99.7%.
As to `Cc1cc(Nc2ncc(Cl)c(Nc3ccccc3S(=O)(=O)C(C)C)n2)c(OC(C)C)cc1C1CCNCC1` [Ceritinib], the inhibition at 10 µM stood at 96.1%.
On the same count and under the same terms, the same measure for `O=C(c1ccc(F)c(F)c1Nc1ccc(I)cc1F)N1CC(O)([C@@H]2CCCCN2)C1` [Cobimetinib]: 83.3%; for `CC(C)(C)c1nc(-c2cccc(NS(=O)(=O)c3c(F)cccc3F)c2F)c(-c2ccnc(N)n2)s1` [Dabrafenib]: 72.1%.
Still for that read-out and setting: as for `COc1cc2ncnc(Nc3ccc(F)c(Cl)c3)c2cc1NC(=O)/C=C/CN1CCCCC1` [Dacomitinib], the figure is 91.6%.
Same read-out and setting: as for `COC(=O)N[C@@H](C)CNc1nccc(-c2cn(C(C)C)nc2-c2cc(Cl)cc(NS(C)(=O)=O)c2F)n1` [Encorafenib], the figure is 66.1%.
In the case of `CN1CCN(c2ccc(C(=O)Nc3n[nH]c4ccc(Cc5cc(F)cc(F)c5)cc34)c(NC3CCOCC3)c2)CC1` [Entrectinib], 10 µM produced 99.6% inhibition.
On the same count and under the same terms, as for `Cc1cnc(Nc2ccc(OCCN3CCCC3)cc2)nc1Nc1cccc(S(=O)(=O)NC(C)(C)C)c1` [Fedratinib], the figure is 98.6%; as for `COc1cc(Nc2ncc(F)c(Nc3ccc4c(n3)N(COP(=O)(O)O)C(=O)C(C)(C)O4)n2)cc(OC)c1OC` [Fostamatinib], 40.2%.
On to `COc1cc2ncnc(Nc3ccc(F)c(Cl)c3)c2cc1OCCCN1CCOCC1` [Gefitinib], for which 10 µM produced 91.8% inhibition.
The same measure, in the same setting: the same measure for `CCc1nc(C(N)=O)c(Nc2ccc(N3CCC(N4CCN(C)CC4)CC3)c(OC)c2)nc1NC1CCOCC1` [Gilteritinib]: 96.7%; for `O=C(Nc1cnn2ccc(N3CCC[C@@H]3c3cc(F)ccc3F)nc12)N1CC[C@H](O)C1` [Larotrectinib]: 21.1%.
Regarding `COc1cc2nccc(Oc3ccc(NC(=O)NC4CC4)c(Cl)c3)c2cc1C(N)=O` [Lenvatinib], 10 µM produced 87.7% inhibition.
On the same count and under the same terms, as for `C[C@H]1Oc2cc(cnc2N)-c2c(nn(C)c2C#N)CN(C)C(=O)c2ccc(F)cc21` [Lorlatinib], the figure is 61.8%; as for `CO[C@@H]1[C@H](N(C)C(=O)c2ccccc2)C[C@H]2O[C@]1(C)n1c3ccccc3c3c4c(c5c6ccccc6n2c5c31)C(=O)NC4` [Midostaurin], 50%; as for `CCOc1cc2ncc(C#N)c(Nc3ccc(OCc4ccccn4)c(Cl)c3)c2cc1NC(=O)/C=C/CN(C)C` [Neratinib], 90.9%.
The same measure, in the same setting: the same measure for `COC(=O)c1ccc2c(c1)NC(=O)/C2=C(\Nc1ccc(N(C)C(=O)CN2CCN(C)CC2)cc1)c1ccccc1` [Nintedanib]: 95.3%; for `C=CC(=O)Nc1cccc(Oc2nc(Nc3ccc(N4CCN(C)CC4)cc3)nc3ccsc23)c1` [Olmutinib]: 97.7%; for `C=CC(=O)Nc1cc(Nc2nccc(-c3cn(C)c4ccccc34)n2)c(OC)cc1N(C)CCN(C)C` [Osimertinib]: 94.1%.
The same measure, in the same setting: as for `CCN1C(=O)N(c2c(F)c(OC)cc(OC)c2F)Cc2cnc3[nH]c(CN4CCOCC4)cc3c21` [Pemigatinib], the figure is 80.1%.

Staying with this data set, now noted: human, pH 7.4.
With `COc1cc(N2CCC(N3CCN(C)CC3)CC2)ccc1Nc1ncc(Cl)c(Nc2ccccc2P(C)(C)=O)n1` [Brigatinib], the inhibition at 10 µM stood at 95.9%.
